According to patent publication US20190315711A1 (eXIthera Pharmaceuticals, Inc., priority 2016, published 2019):
≈ marks a conversion by molar mass, not a printed value.

How the values were obtained:
[1] = Aqueous solubility in PBS pH 7.4; assay type: physicochemical; conditions: phosphate buffered saline, aqueous buffer, kinetic from dmso stock, PBS pH 7.4, room temperature
Method: The following procedure was used to determine the aqueous solubility of a test compound in phosphate buffered saline (PBS—NaCl 137 mM, KCl 2.7 mM, Na2HPO4 8.1 mM, KH2PO4 1.5 mM, pH 7.4) in 96-well plate format by HPLC-UV/VIS analysis. The test compound was prepared at 200 μM in PBS from a 10 mM DMSO stock solution. The final DMSO concentration was 2%. The PBS buffer samples were mixed thoroughly followed by incubation at room temperature for 24 h. At the end of the incubation, the PBS buffer samples were centrifuged and supernatants analyzed by HPLC. The aqueous solubility (μM) of the test compound in PBS was determined by comparing the peak area of the principal peak in the calibration standard (200 μM) with the peak area of the corresponding peak in each of the PBS samples. The range of the assay was approximately 0.5 μM to 200 μM. The reference compounds used in each assay were metoprolol, rifampicin, ketoconazole, phenytoin, haloperidol, simvastatin, diethylstilbestrol, and tamoxifen ranking from fully soluble (200 μM) to poorly soluble (<1 μM).

[2] = Metabolic stability in dog hepatocytes; assay type: in vitro ADME; conditions: pooled cryopreserved hepatocytes; beagle dog hepatocytes, 2 μM compound, 500,000 cells/mL, 37° C.; read-out: Dog Hepatocyte Stability (T½: min)
Method: The following procedure was used to determine the stability of test compounds in beagle dog hepatocytes in a 96-well plate format. The test compounds, including the controls, imipramine and 7-ethoxycoumarin, were dissolved at 10 mM in DMSO, followed by further 5-fold dilution with DMSO to 2 mM. Pooled cryopreserved beagle dog hepatocytes were thawed and transferred into complete medium. Cells were gently centrifuged (700 rpm for 5 min) and the pellet rinsed with KHB (Krebs Henseleit buffer). Cells were resuspended, counted using Trypan blue, and adjusted to 1 million cells/mL in KHB buffer. The 2 mM compound stock solutions were diluted 10-fold with acetonitrile, followed by a further 50-fold dilution with KHB buffer. 200 μL of these compound solutions were transferred to 96-well polypropylene assay plates and an equal volume of the hepatocyte solution was added and mixed to initiate the reaction (final assay concentrations were 2 μM compound and 500,000 cells/mL). Assay plates were incubated at 37° C. in 5% CO2 with gentle agitation. 50 μL aliquots were removed at multiple time points out to 180 minutes and quenched with 6 volumes of cold acetonitrile (containing 250 ng/mL of carbutamide and chrysin as internal standards) to terminate the reaction and precipitate protein. Quenched samples were maintained on ice. The quenched samples were centrifuged at 2000×g (3100 rpm) for 10 minutes at 4° C. 50 μL aliquots of the supernatants were removed and diluted with 100 μL Milli-Q water to reduce the % organic content prior to bioanalysis by LC-MS/MS. Peak areas corresponding to the test compound were recorded. The compound remaining was calculated by comparing the peak area at each time point to time zero. Data were analyzed and results were calculated using Microsoft Excel 2010.

[3] = target: T1, Thrombin (Homo sapiens, UniProt P00734); experiment: Dose response assay for protease inhibitors: thrombin; assay type: biochemical; conditions: ratio versus Factor XIa
T1 construct: Thrombin; 0.2 μM in 50% glycerol (7.34 μg/mL)
Method: (§1) • Assay buffer: 20 mM Hepes, pH 7.4; 150 mM NaCl; 0.02% Tween 20 • Compounds: 10 mM stocks in DMSO • Substrate: 20 mM Glp-Pro-Arg-AMC, 25 mg/2.3 mL H2O (store at +4° C.) [Factor XIa, thrombin, and trypsin] • 20 mM Pro-Phe-Arg-AMC (Bachem I-1295), 25 mg/2.2 mL H2O or Boc-Leu-Gly-Arg-AMC (Bachem I-1105), 25 mg/2.07 mL H2O (store at +4° C.) [Factor Xa] • Enzyme: Factor XIa; 0.25 M in 50% glycerol (20 μg/mL) • Trypsin; 0.2 μM in 50% glycerol (4.8 μg/mL) • Thrombin; 0.2 μM in 50% glycerol (7.34 μg/mL) • Factor Xa; 0.2 μM in 50% glycerol (9.2 μg/mL)
(§2) • 1. Dilute the substrate to 100 μM in assay buffer (30 μL/6 mL). The enzyme is diluted to 0.5 nM just prior to use (12 L/6 mL for Factor XIa; 15 μL/6 mL for all of the rest.) • 2. Pipette 50 μL of substrate into each well of the 96 well (12×8) microtiter plate. (Column 1 is used as the 100% activity control and receives no compound, and Column 12 is the blank and receives no enzyme.) Add an additional 46 μL to column 2. • 3. Pipette 4 μL of each compound into the appropriate well in column 2 of the plate (unknowns assayed in triplicate, standard assayed in duplicate). The final compound concentration will be 1/50th of the stock. • 4. Serially two-fold dilute the compound by mixing the sample in column 2, removing 50 μL to the next well (column 3), mix and remove to column 4, etc. until column 11. After mixing column 11, remove 50 μL and discard. • 5. Pipette 50 μL of buffer into column 12. Initiate the reaction by adding 50 μL of enzyme solution to each well of columns 1-11 as rapidly as possible. • 6. Read the plate in a spectrophotometer (SpectraMax) at 30° C., wherein each well is measured every 60 s for 30 min. For Factor Xa assays, each well is measured every 1 min for a total of 60 min. • 7. For Factor XIa assays, the compounds are assayed, in duplicate, at 3 different starting concentrations, 20, 2, and 0.2 μM; 1:10, 1:100, and 1:1000 dilution of 10 mM stock or at 2, 0.2, and 0.02 μM; 1:100, 1:1000, and 1:10,000 dilution of 10 mM stock. Data for each concentration are combined for graphing and data fitting. • 8. Data can be used both for estimation of IC50 and for estimation of Kon.

[4] = target: T2, Factor Xa (Homo sapiens, UniProt P00742); experiment: Dose response assay for protease inhibitors: Factor Xa; assay type: biochemical; conditions: ratio versus Factor XIa
T2 construct: Factor Xa; 0.2 μM in 50% glycerol (9.2 μg/mL)
T2 sequence (P00742 235-488 limits assumed): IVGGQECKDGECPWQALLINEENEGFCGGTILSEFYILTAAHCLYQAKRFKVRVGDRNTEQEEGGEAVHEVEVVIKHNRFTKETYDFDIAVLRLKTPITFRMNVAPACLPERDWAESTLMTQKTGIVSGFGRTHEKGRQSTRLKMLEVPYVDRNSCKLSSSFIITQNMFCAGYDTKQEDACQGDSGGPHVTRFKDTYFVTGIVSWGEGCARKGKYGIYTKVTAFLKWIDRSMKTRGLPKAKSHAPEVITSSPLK
T2 sequence (P00742 41-179 partner limits assumed): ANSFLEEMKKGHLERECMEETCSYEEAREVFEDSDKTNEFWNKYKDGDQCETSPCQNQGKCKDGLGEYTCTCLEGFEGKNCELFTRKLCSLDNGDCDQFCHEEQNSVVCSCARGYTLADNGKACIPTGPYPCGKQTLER
Method: as §1, §2

Compound	solubility at 24 h [1] [µM]	half-life at 2 μM [2] [h]	Ratio: Thrombin/FXIa [3]	FXa/FXIa (selectivity ratio) [4]
CC[C@@H](NC(=O)N1C(=O)[C@H](Cc2ccnc(N)c2)[C@H]1C(=O)N(C)c1ncncn1)c1ccccc1 [Compound 83]	> 100	< 1	I (“I” indicates >500)	I (“I” indicates >500)
CC[C@@H](NC(=O)N1C(=O)[C@H](Cc2ccnc(N)c2)[C@H]1C(=O)N(C)c1ccncc1)c1cccc(Cl)c1 [Compound 90]	> 100	2.02 to 4	H (“H” indicates 101-1000)	I (“I” indicates >500)
CC[C@@H](NC(=O)N1C(=O)[C@H](Cc2ccnc(N)c2)[C@H]1C(=O)N(CC)c1ncccn1)C1CCCCC1 [Compound 39]	–	< 1	I (“I” indicates >500)	I (“I” indicates >500)
CC[C@@H](NC(=O)N1C(=O)[C@H](Cc2ccnc(N)c2)[C@H]1C(=O)N(C)c1ncccn1)c1ccccc1 [Compound 84]	> 100	1.02 to 2	I (“I” indicates >500)	I (“I” indicates >500)
CC[C@@H](NC(=O)N1C(=O)[C@H](Cc2ccnc(N)c2)[C@H]1C(=O)N(C)c1ccncc1)c1cccc(C)c1 [Compound 87]	> 100	2.02 to 4	H (“H” indicates 101-1000)	I (“I” indicates >500)
CCC[C@@H](NC(=O)N1C(=O)[C@H](Cc2ccnc(N)c2)[C@H]1C(=O)N(C)c1ccncc1)c1ccccc1 [Compound 86]	> 100	> 4	I (“I” indicates >500)	I (“I” indicates >500)
CCC[C@@H](NC(=O)N1C(=O)[C@H](Cc2ccnc(N)c2)[C@H]1C(=O)N(C)c1ccccc1)C1CCCCC1 [Compound 50]	> 100	1.02 to 2	G (“G” indicates 1-100)	I (“I” indicates >500)
CC[C@@H](NC(=O)N1C(=O)[C@H](Cc2ccnc(N)c2)[C@H]1C(=O)N(C)c1ccncc1)c1cccnc1 [Compound 59]	> 100	> 4	H (“H” indicates 101-1000)	I (“I” indicates >500)
CN(C(=O)[C@@H]1[C@@H](Cc2ccnc(N)c2)C(=O)N1C(=O)N[C@@H](C1CC1)C(F)(F)F)c1ccncc1 [Compound 77]	> 100	2.02 to 4	H (“H” indicates 101-1000)	H (“H” indicates 101-1000)
Cc1ccccc1N(C)C(=O)[C@@H]1[C@@H](Cc2ccnc(N)c2)C(=O)N1C(=O)N[C@@H](C1CCCCC1)C(F)(F)F [Compound 15]	10 to 100 (≈ 5.32 to 53.2 µg/mL)	–	G (“G” indicates 1-100)	H (“H” indicates 101-1000)
CC[C@@H](NC(=O)N1C(=O)[C@H](Cc2ccnc(N)c2)[C@H]1C(=O)N(C)c1ncccn1)c1cccnc1 [Compound 61]	> 100	2.02 to 4	H (“H” indicates 101-1000)	H (“H” indicates 101-1000)
CC[C@@H](NC(=O)N1C(=O)[C@H](Cc2ccnc(N)c2)[C@H]1C(=O)N(C)c1ccncc1)c1cccc(OC)c1 [Compound 100]	> 100	> 4	H (“H” indicates 101-1000)	H (“H” indicates 101-1000)
CN(C(=O)[C@@H]1[C@@H](Cc2ccnc(N)c2)C(=O)N1C(=O)N[C@@H](C1CCCCC1)C(F)(F)F)c1ccncc1 [Compound 18]	> 100	–	H (“H” indicates 101-1000)	I (“I” indicates >500)
CN(C(=O)[C@@H]1[C@@H](Cc2ccnc(N)c2)C(=O)N1C(=O)N[C@@H](C1CCCCC1)C(F)(F)F)c1cccc(F)c1 [Compound 22]	10 to 100 (≈ 5.36 to 53.6 µg/mL)	–	G (“G” indicates 1-100)	H (“H” indicates 101-1000)
CN(C(=O)[C@@H]1[C@@H](Cc2ccnc(N)c2)C(=O)N1C(=O)N[C@@H](C1CCCCC1)C(F)(F)F)c1cccnc1 [Compound 17]	> 100	–	G (“G” indicates 1-100)	H (“H” indicates 101-1000)
CC[C@@H](NC(=O)N1C(=O)[C@H](Cc2ccnc(N)c2)[C@H]1C(=O)N(C)c1ccccc1)C1CC1 [Compound 46]	> 100	–	G (“G” indicates 1-100)	H (“H” indicates 101-1000)
CN(C(=O)[C@@H]1[C@@H](Cc2ccnc(N)c2)C(=O)N1C(=O)N[C@@H](C1CCCCC1)C(F)(F)F)c1cncnc1 [Compound 19]	> 100	–	G (“G” indicates 1-100)	H (“H” indicates 101-1000)
CCN(C(=O)[C@@H]1[C@@H](Cc2ccnc(N)c2)C(=O)N1C(=O)N[C@@H](C1CCCCC1)C(F)(F)F)c1ccccc1 [Compound 24]	10 to 100 (≈ 5.32 to 53.2 µg/mL)	–	G (“G” indicates 1-100)	H (“H” indicates 101-1000)
